Results published in US10214512B2, “Factor XIA inhibitors” (MERCK SHARP & DOHME CORP., priority 2015, dated 2019).

How the values were obtained:
[1] = molecular target: purified Human plasma Kallikrein (Homo sapiens (Human), UniProt P03952); test: Kallikrein Assay; type: biochemical; settings: purified Human plasma Kallikrein 0.5 nM; substrate Acetyl-K-P-R-AFC; 50 mM HEPES pH 7.4; Ki from IC50 by Cheng Prusoff
Protocol: (§1) The effectiveness of a compound of the present invention as an inhibitor of Kallikrein can be determined using a relevant purified serine protease, and an appropriate synthetic substrate. The rate of hydrolysis of the chromogenic or fluorogenic substrate by the relevant serine protease was measured both in the absence and presence of compounds of the present invention. Assays were conducted at rt or at 37° C. […] A decrease in the rate of fluorescence change in the presence of inhibitor is indicative of enzyme inhibition. Such methods are known to one skilled in the art. The results of this assay are expressed as the inhibitory constant, Ki.
Kallikrein determinations were made in 50 mM HEPES buffer at pH 7.4 containing 150 mM NaCl, 5 mM CaCl2, and 0.1% PEG 8000 (polyethylene glycol; Fisher Scientific). Determinations were made using purified Human plasma Kallikrein at a final concentration of 0.5 nM (Enzyme Research Laboratories) and the synthetic substrate, Acetyl-K-P-R-AFC (Sigma # C6608) at a concentration of […].
Times required to achieve equilibration between enzyme and inhibitor were determined in control experiments. […] IC50 was determined by inflection point from a four parameter logistic curve fit. Ki was calculated using the Cheng Prusoff equation, Ki=IC50/(1+([S]/Km)).

[2] = molecular target: purified human Factor XIa (Homo sapiens (Human), UniProt P03951); test: Factor XIa Assay; type: biochemical; settings: purified human Factor XIa 40 pM; substrate Z-Gly-Pro-Arg-AFC 100 μM; 50 mM HEPES pH 7.4; read-out: Human FXIa Ki
purified human Factor XIa, sequence (P03951 388-625): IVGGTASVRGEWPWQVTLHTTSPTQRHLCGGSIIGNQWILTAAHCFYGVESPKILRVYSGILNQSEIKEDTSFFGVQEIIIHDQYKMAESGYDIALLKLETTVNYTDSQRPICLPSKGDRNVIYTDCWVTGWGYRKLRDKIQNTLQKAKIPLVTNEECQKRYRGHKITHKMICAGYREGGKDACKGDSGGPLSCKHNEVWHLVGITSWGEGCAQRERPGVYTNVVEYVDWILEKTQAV
purified human Factor XIa, sequence (P03951 19-387 partner): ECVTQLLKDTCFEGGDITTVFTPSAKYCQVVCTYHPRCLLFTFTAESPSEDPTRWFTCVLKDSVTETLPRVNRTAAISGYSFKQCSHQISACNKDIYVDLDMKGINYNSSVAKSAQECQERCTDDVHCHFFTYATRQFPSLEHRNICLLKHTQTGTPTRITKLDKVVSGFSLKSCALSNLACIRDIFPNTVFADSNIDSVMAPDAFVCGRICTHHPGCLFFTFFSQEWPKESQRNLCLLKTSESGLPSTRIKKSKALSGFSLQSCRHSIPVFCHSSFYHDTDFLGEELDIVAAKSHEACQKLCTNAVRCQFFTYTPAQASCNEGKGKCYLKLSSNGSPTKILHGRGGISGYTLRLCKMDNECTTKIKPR
Protocol: as §1, with “Coagulation Factor XIa” for “Kallikrein”
Factor XIa determinations were made in 50 mM HEPES buffer at pH 7.4 containing 150 mM NaCl, 5 mM CaCl2, and 0.1% PEG 8000 (polyethylene glycol; JT Baker or Fisher Scientific). Determinations were made using purified human Factor XIa at a final concentration of 40 pM (Sekisui Diagnostics) and he synthetic substrate, Z-Gly-Pro-Arg-AFC, TFA salt (Sigma #C0980) at a concentration of 100 μM.
Times required to achieve equilibration between enzyme and inhibitor were determined in control experiments. Initial velocities of product formation in the absence (Vo) or presence of inhibitor (Vi) were measured. Assuming competitive inhibition, and that unity is negligible compared Km/[S], [I]/e, and [I]/e (where [S], [I], and e respectively represent the total concentrations, of substrate, inhibitor and enzyme), the equilibrium constant (Ki) for dissociation of the inhibitor from the enzyme can be obtained from the dependence of Vo/Vi on [I] shown in the following equation.

purified Human plasma Kallikrein, sequence (P03952 391-638): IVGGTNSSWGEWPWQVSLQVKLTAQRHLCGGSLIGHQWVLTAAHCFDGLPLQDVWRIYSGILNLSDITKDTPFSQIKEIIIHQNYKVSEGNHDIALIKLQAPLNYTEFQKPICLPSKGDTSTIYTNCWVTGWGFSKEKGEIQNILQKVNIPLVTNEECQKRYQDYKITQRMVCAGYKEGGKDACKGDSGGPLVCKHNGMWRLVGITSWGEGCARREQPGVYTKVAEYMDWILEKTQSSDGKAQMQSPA
purified Human plasma Kallikrein, sequence (P03952 20-390 partner): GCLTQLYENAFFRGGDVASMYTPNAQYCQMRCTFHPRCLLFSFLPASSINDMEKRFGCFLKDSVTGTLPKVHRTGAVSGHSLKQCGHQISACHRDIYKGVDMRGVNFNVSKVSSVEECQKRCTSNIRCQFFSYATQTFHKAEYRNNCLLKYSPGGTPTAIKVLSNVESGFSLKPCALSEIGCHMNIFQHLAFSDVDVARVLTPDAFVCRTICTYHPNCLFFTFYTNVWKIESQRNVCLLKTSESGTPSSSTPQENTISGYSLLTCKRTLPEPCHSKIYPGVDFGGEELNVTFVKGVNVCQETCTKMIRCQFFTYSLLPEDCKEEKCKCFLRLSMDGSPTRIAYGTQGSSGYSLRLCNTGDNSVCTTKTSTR

COC(=O)Nc1ccc2c(c1)NC(=O)CCCC[C@H](c1ccc(-c3c(F)cccc3OC(F)F)c[n+]1[O-])c1cccc-2c1 (single isomer, unassigned) [Example 34]
Ki [1]: 5.01 nM

COC(=O)Nc1ccc2c(c1)NC(=O)CCCC[C@H](c1ccc(-c3cc(Cl)ccc3-c3cnco3)c[n+]1[O-])c1cccc-2c1 (single isomer, unassigned) [Example 35]
Ki [1]: 0.7 nM

COC(=O)Nc1ccc2c(c1)NC(=O)CCCC[C@H](c1ccc(-c3cc(Cl)ccc3-n3cc(C4CC4)nn3)c[n+]1[O-])c1cccc-2c1 (single isomer, unassigned) [Example 38]
Ki [1]: 0.95 nM

COC(=O)Nc1ccc2c(c1)NC(=O)CCCC[C@H](c1ccc(-c3c(F)ccc(Cl)c3F)c[n+]1[O-])c1ccc(F)c-2c1 (single isomer, unassigned) [Example 68]
Ki [1]: 2.09 nM

COC(=O)Nc1ccc2c(c1)NC(=O)CCCC[C@H](c1ccc(-c3cc(Cl)ccc3-n3cnnn3)c[n+]1[O-])c1cc-2ncc1F (single isomer, unassigned) [Example 71]
Ki [1]: 0.33 nM

COC(=O)Nc1ccc2c(c1)NC(=O)[C@H](C)CCC[C@H](c1ccc(-c3cc(Cl)ccc3OC(F)(F)F)c[n+]1[O-])c1cccc-2c1 (single isomer, unassigned) [Example 77-a]
Ki [1]: 1.69 nM

COC(=O)Nc1ccc2c(c1)NC(=O)[C@@H](C)CCC[C@H](c1ccc(-c3cc(Cl)ccc3OC(F)(F)F)c[n+]1[O-])c1cccc-2c1 (single isomer, unassigned) [Example 77-b]
Ki [1]: 17.3 nM

COC(=O)Nc1ccc2c(c1)NC(=O)C(C)CCCC(c1cc(OC)c(-c3c(F)ccc(Cl)c3F)c[n+]1[O-])c1cccc-2c1 (single isomer, unassigned) [Example 88-b, 5-(3-Chloro-2,6-difluorophenyl)-4-methoxy-2-(2^4-((methoxycarbonyl)amino)-5-methyl-4-oxo-3-aza-1(1,3),2(1,2) -dibenzenacyclononaphane-9-yl)pyridine 1-oxide]
Ki [1]: 2.67 nM

COC(=O)Nc1ccc2c(c1)NC(=O)C(C)CCCC(c1cc(OC)c(-c3c(F)ccc(Cl)c3F)c[n+]1[O-])c1cccc-2c1 (single isomer, unassigned) [Example 88-d, 5-(3-Chloro-2,6-difluorophenyl)-4-methoxy-2-(2^4-((methoxycarbonyl)amino)-5-methyl-4-oxo-3-aza-1(1,3),2(1,2) -dibenzenacyclononaphane-9-yl)pyridine 1-oxide]
Ki [1]: 5.21 nM

COC(=O)Nc1ccc2c(c1)NC(=O)CCCCC(c1ccc(-c3cc(Cl)ccc3-n3cc(C(=O)O)nn3)cn1)c1cccc-2c1 (single isomer, unassigned) [Example 92-a, 1-(4-chloro-2-(6-(2^4-((methoxycarbonyl)amino)-4-oxo-3-aza-1(1,3),2(1,2) -dinenzenacyclononaphane-9-yl)pyridin-3-yl)phenyl)-1H-1,2,3-triazole-4-carboxylic acid]
Ki [1]: 26 nM

COC(=O)Nc1ccc2c(c1)NC(=O)CCCCC(c1ccc(-c3c(F)ccc(Cl)c3F)c[n+]1[O-])c1ccnc-2c1 (single isomer, unassigned) [Example 93-a, 5-(3-Chloro-2,6-difluorophenyl)-2-(2^4-((methoxycarbonyl)amino)-4-oxo-3-aza-1 (2,4)-pyridina-2(1,2)-benzenacyclononaphane-9-yl)pyridine 1-oxide]
Ki [1]: 1.92 nM

COC(=O)Nc1ccc2c(c1)NC(=O)C(C)CCCC(c1ccc(-c3c(F)ccc(Cl)c3F)cn1)c1cc-2ccn1 (single isomer, unassigned) [Example 95-a, Methyl (9-(5-(3-chloro-2,6-difluorophenyl)pyridin-2-yl)-5-methyl-4-oxo-3-aza-1(4,2)-pyridina-2(1,2)-benzenacyclononaphane-2^4-yl)carbamate]
Ki [1]: 11.7 nM

COC(=O)Nc1ccc2c(c1)NC(=O)C(C)CCCC(c1ccc(-c3c(F)ccc(Cl)c3F)cn1)c1cc-2ccn1 (single isomer, unassigned) [Example 95-d, Methyl (9-(5-(3-chloro-2,6-difluorophenyl)pyridin-2-yl)-5-methyl-4-oxo-3-aza-1(4,2)-pyridina-2(1,2)-benzenacyclononaphane-2^4-yl)carbamate]
Ki [1]: 10.8 nM

COC(=O)Nc1ccc2c(c1)NC(=O)C(C)CCCC(c1ccc(-c3c(F)ccc(Cl)c3F)c[n+]1[O-])c1nc-2c[nH]1 (single isomer, unassigned) [Example 114-a, (Z)-5-(3-chloro-2,6-difluorophenyl)-2-(2^4-((methoxycarbonyl)amino)-5-methyl-4-oxo-1^1H-3-aza-1(4,2)-imidazola-2(1,2) -benzenacyclononaphane-9-yl)pyridine 1-oxide]
Ki [1]: 0.24 nM

COC(=O)Nc1ccc2c(c1)NC(=O)C(C)CCCC(c1ccc(-c3c(F)ccc(Cl)c3F)c[n+]1[O-])c1nc-2c[nH]1 (single isomer, unassigned) [Example 114-c, (Z)-5-(3-chloro-2,6-difluorophenyl)-2-(2^4-((methoxycarbonyl)amino)-5-methyl-4-oxo-1^1H-3-aza-1(4,2)-imidazola-2(1,2) -benzenacyclononaphane-9-yl)pyridine 1-oxide]
Ki [1]: 0.78 nM

COC(=O)Nc1ccc2c(c1)NC(=O)CCCC[C@H](c1ccc(-c3c(F)cccc3-n3cc(C(F)(F)F)cn3)c[n+]1[O-])c1nc-2c[nH]1 (single isomer, unassigned) [Example 115]
Ki [1]: 331 nM

COC(=O)Nc1ccc2c(c1)NC(=O)CCCC[C@H](c1ccc(-c3c(F)cccc3OC(F)F)c[n+]1[O-])c1nc-2c(C)[nH]1 (single isomer, unassigned) [Example 126]
Ki [1]: 2.03 nM

COC(=O)Nc1ccc2c(c1)NC(=O)CCCC[C@H](c1ccc(-c3c(OC(F)F)ccc(F)c3F)c[n+]1[O-])c1nc-2c(C)[nH]1 (single isomer, unassigned) [Example 130]
Ki [1]: 0.66 nM

COC(=O)Nc1ccc2c(c1)NC(=O)CCCCC(c1ccc(-c3c(F)cccc3OC(F)(F)F)c[n+]1[O-])c1nc-2c(C)[nH]1 (single isomer, unassigned) [Example 131]
Ki [1]: 5.32 nM

COC(=O)Nc1ccc2c(c1)NC(=O)CCCC[C@H](c1ccc(-c3c(F)cccc3-n3cc(C(F)(F)F)cn3)c[n+]1[O-])c1nc-2c(C)[nH]1 (single isomer, unassigned) [Example 137]
Ki [1]: 418 nM

COC(=O)Nc1ccc2c(c1)NC(=O)CCCCC(c1ccc(-c3c(F)ccc(Cl)c3F)c[n+]1[O-])c1ccc(F)c-2n1 (stereo not drawn) [Example 74, 5-(3-chloro-2,6-difluorophenyl)-2-(1^3-fluoro-2^4-((methoxycarbonyl)amino)-4-oxo-3-aza-1(2,6)-pyridina-2(1,2)-benzenacyclononaphane-9-yl)pyridine 1-oxide]
Ki [2]: 180 nM

COC(=O)Nc1ccc2c(c1)NC(=O)CCCCC(c1ccc(-c3c(-n4cc(C(F)(F)F)cn4)ccc(Cl)c3F)c[n+]1[O-])c1nc-2c[nH]1 (stereo not drawn) [Example 116]
Ki [2]: 208 nM

Cn1cc2c(n1)-c1cccc(c1)C(c1ccc(-c3c(F)ccc(Cl)c3F)c[n+]1[O-])CCCCC(=O)N2 (stereo not drawn) [Example 163, 5-(3-chloro-2,6-difluorophenyl)-2-(1^1-methyl-8-oxo-1^1H-9-aza-1(3,4) -pyrazola-2(1,3)-benzenacyclononaphane-3-Yl)pyridine 1-oxide]
Ki [2]: 22.6 nM

Cn1ncc2c1-c1cccc(c1)C(c1ccc(-c3c(F)ccc(Cl)c3F)c[n+]1[O-])CCCCC(=O)N2 (stereo not drawn) [Example 164, 5-(3-chloro-2,6-difluorophenyl)-2-(1^1-methyl-8-oxo-1H-9-aza-1(5,4) -pyrazola-2(1,3)-benzenacyclononaphane-3-Yl)pyridine 1-oxide]
Ki [2]: > 875 nM
